Measured values reported in patent US20250221957A1, “PS[…] AND THEIR USE FOR TREATING […] AND NE[…] DISORDERS” (Transcend Therapeutics, Inc., priority 2021, published 2025).
Read-outs that look alike come from different tables or passages of the source. Marks after values point to notes of the source that are not given here.

Experiments:
serotonin transporter = serotonin transporter (Homo sapiens, UniProt P31645); conditions: cited from earlier work
[1] = test system: patients with a diagnosis of PTSD or MDD; healthy subjects; experiment: Methylone case series (Example 4, Cohorts 1 and 2): CGI-S/CGI-I and safety events; type: in vivo, human
Description: CGI-S scale was also evaluated in a subset of patients from Cohort 2 post-treatment. Cohort 2 was evaluated for any observed or reported safety events following a single dosing session.
Clinical Global Impressions (CGI) scale includes 2 components: CGI-S(“severity”) and CGI-I (“improvement”).
• 1=Normal—not at all ill, symptoms of disorder not present past seven days • 2=Borderline mentally ill-subtle or suspected pathology • 3=Mildly ill-clearly established symptoms with minimal, if any, distress or difficulty in social and occupational function • 4=Moderately ill-overt symptoms causing noticeable, but modest, functional impairment or distress; symptom level may warrant medication • 5=Markedly ill-intrusive symptoms that distinctly impair social/occupational function or cause intrusive levels of distress • 6=Severely ill-disruptive pathology, behavior and function are frequently influenced by symptoms, may require assistance from others • 7=Among the most extremely ill patients-pathology drastically interferes in many life functions; may be hospitalized
Only sessions that included methylone dosing were counted as dosing sessions.
Single sessions occurred for 8 of the 28 cases with no booster in two of these cases. In the remainder of the cases, multiple sessions occurred, and booster doses were used in all or some of the remaining patients ([…]) with multiple booster doses used in some or all of the sessions in 15 patients.

Sprague Dawley rats = experiment: Forced Swim Test (FST); type: in vivo, rat; conditions: for reduction in immobility compared to saline vehicle: single dose 30 min prior to testing (Example 6)
Text: The Forced Swim Test (FST) is a classic, and the most used preclinical behavioral assay to screen compounds with antidepressant-like activity and has high predictive and face validity (Porsolt et al. (1977) Nature 266:730; Borsini and Meli (1988) Psychopharmacology 94:147). The premise of the FST is that when rats are placed into a cylinder filled with water, they will initially try to escape, but over time will become immobile. This increased immobility reflects behavioral despair, modeling a depressive-like state.
Animals: Male Sprague Dawley rats (Charles River Laboratories) weighing 180-200 g on arrival, were used for this study which took place at Melior Discovery (Exton, PA). Rats acclimated to their home cages for at least one week before testing, were maintained in a controlled environment on a 12 h light/dark cycle, with no more than 2 rats per cage. Animals received ad libitum access to food and water and were assigned randomly to treatment groups. Animal use and procedures were in accordance with established protocols approved by the IACUC committee, Melior Standard Operation Procedures (SOP), and Transcend Therapeutics.
Forced Swim Test (FST): In the FST trial, rats were be placed in a circular plexiglass container filled with water, with no means of escape. Water temperature was maintained at 22-25° C. and changed for every animal. After an acclimation period, rats were timed for inactivity (failure to struggle), activity, swim time and climbing time. Day 1 consisted of a 15 min acclimation trial, and Day 2 (24 h later) consisted of the 5 min test. A time sampling procedure was employed where animals were observed every 5 sec and scored for immobility, swimming, or climbing. Fluoxetine (10 mg/kg, IP, Sigma Aldrich) or 0.9% sterile saline vehicle (vehicle 3× group) were administered 23.5, 5, and 1 h before testing in the FST. […] The experimenter was blinded to treatment.
Statistical Analysis: Data for each parameter of the test (immobility, swimming, or climbing) is expressed as the mean±SEM. Differences between groups were determined by one-way ANOVA and post-hoc Tukey's test with a p-value of less than 0.05 indicating statistically significant differences.
Forced Swim Test: In the FST trial, rats were be placed in a circular plexiglass container filled with water, with no means of escape. Water temperature was maintained at 22-25° C. and changed for every animal. After an acclimation period, rats were timed for inactivity (failure to struggle), activity, swim time and climbing time. Day 1 consisted of a 15 min acclimation trial, and Day 2 (24 h later) consisted of the 5 min test. A time sampling procedure was employed where animals were observed every 5 sec and scored for immobility, swimming, or climbing. Fluoxetine (10 mg/kg, IP, Sigma Aldrich) or 0.9% sterile saline vehicle (vehicle 3× group) were administered 23.5, 5, and 1 h before testing in the FST. 2C-B (2.5, 10, or 20 mg/kg, IP, Cayman Chemical) or 0.9% saline vehicle (vehicle 1× group) were administered 30 min prior to FST testing. The experimenter was blinded to treatment.
Drug Treatment: Fluoxetine (10 mg/kg, IP, Sigma Aldrich) or 0.9% sterile saline vehicle were administered 23.5, 5, and 1 h before testing in the FST. […] Control animals received fluoxetine alone, methylone alone, or saline vehicle.
Forced Swim Test: In the FST trial, rats were be placed in a circular plexiglass container filled with water, with no means of escape. Water temperature was maintained at 22-25° C. and changed for every animal. After an acclimation period, rats were timed for inactivity (failure to struggle), activity, swim time and climbing time. The experimenter and scorer were blind to treatment group. Day 1 consisted of a 15 min acclimation trial, and Day 2 (24 h later) consisted of the 5 min test. A time sampling procedure was employed where animals were observed every 5 sec and scored for immobility, swimming, or climbing. […]

[2] = target: serotonin (5HT) transporter (Homo sapiens, UniProt P31645); experiment: Radioligand binding, [3H] citalopram
Chain of serotonin (5HT) transporter (P31645 whole entry): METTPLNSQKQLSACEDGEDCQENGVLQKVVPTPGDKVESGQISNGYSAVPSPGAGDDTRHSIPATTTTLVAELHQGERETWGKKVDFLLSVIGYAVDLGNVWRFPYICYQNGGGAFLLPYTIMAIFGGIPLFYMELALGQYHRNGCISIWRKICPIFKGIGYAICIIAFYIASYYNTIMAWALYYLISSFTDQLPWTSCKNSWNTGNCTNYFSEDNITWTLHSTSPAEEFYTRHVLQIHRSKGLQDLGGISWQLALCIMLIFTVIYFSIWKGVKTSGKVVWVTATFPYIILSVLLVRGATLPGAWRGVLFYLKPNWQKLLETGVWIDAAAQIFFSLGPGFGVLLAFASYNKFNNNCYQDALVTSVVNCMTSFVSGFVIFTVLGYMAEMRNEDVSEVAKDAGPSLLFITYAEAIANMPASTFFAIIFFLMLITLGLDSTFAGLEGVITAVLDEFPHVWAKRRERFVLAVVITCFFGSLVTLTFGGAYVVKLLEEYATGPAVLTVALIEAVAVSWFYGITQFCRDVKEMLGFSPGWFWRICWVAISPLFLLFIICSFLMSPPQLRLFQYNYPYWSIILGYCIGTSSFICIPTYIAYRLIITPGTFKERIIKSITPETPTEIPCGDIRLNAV

Chain of serotonin transporter (P31645 whole entry): as above

In the case of `CNC(C)C(=O)c1ccc2c(c1)OCO2` (stereo not drawn) [methylone, 3,4-methylenedioxy-N-methylcathinone], the “affinity for the serotonin transporter lower by comparison to MDMA” value (serotonin transporter) is given as 3 ×, the “Number of cases (N = 28), Magnitude of Improvement” value (“Number of cases” for short) [1] is given as 0 and the “adverse effects or after-effects” value ([1]; Cohort 1, 4 healthy subjects, single session, total dose 790 or 870 mg oral) is given as “no adverse effects or after-effects were observed or reported”. For the same compound, the “cases in which methylone dosing was well tolerated and no safety events were reported” value ([1]; Cohort 2, 25 of 28 cases) was 89.3%, the “patients with initial improvement with the first methylone session” value ([1]; Cohort 2, 25 of 28 patients) was about 90% and the “patients achieving CGI-I 1 or 2” value ([1]; Cohort 2 MDD subset, 8/8 patients) was 100%. The “patients achieving CGI-I 1 or 2” value ([1]; Cohort 2 PTSD subset, 16/20 patients) was 80%, the “patients achieving CGI-I 1 or 2 (much improved or very much improved)” value ([1]; Cohort 2 overall, N=28, oral methylone, single or multiple sessions, compared to baseline CGI-S) was 86% and the “cases reporting a durable effect” value ([1]; MDD subset of Cohort 2, 6 narratives with durability information) was 5. The “cases with durable effect of 6 months or greater” value ([1]; PTSD subset of Cohort 2) was 12, the “case narratives reporting a durable effect” value ([1]; PTSD subset of Cohort 2, 16 narratives with durability information) was 15 and the “patients with magnitude of improvement CGI 1 or 2” value ([1]; PTSD subset, of 5 patients with concomitant SSRIs or other antidepressant classes) was 4. The “Number of cases” value ([1]; highest observed CGI-I = 1 (very much improved), Cohort 2) was 11*, the “Number of cases” value ([1]; highest observed CGI-I = 2 (much improved), Cohort 2) was 13 and the “Number of cases” value ([1]; highest observed CGI-I = 3 (minimally improved), Cohort 2) was 4. The “Number of cases” value ([1]; highest observed CGI-I = 4 (no change), Cohort 2) was 0, the “Number of cases” value ([1]; highest observed CGI-I = 5 (minimally worse), Cohort 2) was 0 and the “Number of cases” value ([1]; highest observed CGI-I = 6 (much worse), Cohort 2) was 0. For the same compound, the climbing behavior (Sprague Dawley rats; Example 8) was “significantly increased climbing behavior”, the “reduced immobility compared to vehicle” value (Sprague Dawley rats; Methylone alone, 5 mg/kg IP (Example 8)) was 71% and the “reduced immobility compared to vehicle” value (Sprague Dawley rats; combined treatment: fluoxetine x3 plus Methylone 15 mg/kg IP (Example 8)) was 95%. For the same compound, the “reduction in immobility compared to saline vehicle” value (from here on “reduction in immobility”) (Sprague Dawley rats; methylone 5 mg/kg IP) was 54%, the “reduction in immobility” value (Sprague Dawley rats; methylone 15 mg/kg IP) was 99% and the “reduction in immobility” value (Sprague Dawley rats; methylone 30 mg/kg IP) was 96%. For the same compound, the climbing (Sprague Dawley rats; methylone 5, 15, 30 mg/kg IP, Example 6) was “only increased at the lowest dose”, the swimming (Sprague Dawley rats; methylone mid and high doses (15, 30 mg/kg IP), Example 6) was “significantly increased swimming” and the “reduced immobility vs. vehicle” value (Sprague Dawley rats; single dose of Methylone (5 mg/kg IP) after three prior doses of fluoxetine 10 mg/kg IP (Example 8)) was 62%. For the same compound, the immobility time (Sprague Dawley rats; single doses of 10 and 15 mg/kg methylone IP (Example 11)) was “reducing immobility time significantly”, the immobility (Sprague Dawley rats; two or three 5 mg/kg doses IP (Example 11)) was “significantly reduce immobility” and the “binding at the 5HT transporter” value [2] was “confirmed methylone binding”.
